From publication PMC4893628, “Chalcone-based Selective Inhibitors of a C4 Plant Key Enzyme as Novel Potential Herbicides” (Scientific Reports, 2016)
Where two headings read alike, the source gives them in different places.

Assays:
F. trinervia PEPC = molecular target: T1, F. trinervia PEPC (Flaveria trinervia, UniProt P30694); experiment: biochemical; assay type: biochemical; conditions: for Selectivity C4/C3: C4 PEPC over C3 isoform; for IC50: C4 PEPC, read-out: IC50 F. trinervia PEPC
T1 construct: the full-length ppcA gene of PEPC from F. trinervia (EMBL-Bank X61304); made in house; host or cells: Escherichia coli BL21(DE3)
T1 sequence (P30694 1-966): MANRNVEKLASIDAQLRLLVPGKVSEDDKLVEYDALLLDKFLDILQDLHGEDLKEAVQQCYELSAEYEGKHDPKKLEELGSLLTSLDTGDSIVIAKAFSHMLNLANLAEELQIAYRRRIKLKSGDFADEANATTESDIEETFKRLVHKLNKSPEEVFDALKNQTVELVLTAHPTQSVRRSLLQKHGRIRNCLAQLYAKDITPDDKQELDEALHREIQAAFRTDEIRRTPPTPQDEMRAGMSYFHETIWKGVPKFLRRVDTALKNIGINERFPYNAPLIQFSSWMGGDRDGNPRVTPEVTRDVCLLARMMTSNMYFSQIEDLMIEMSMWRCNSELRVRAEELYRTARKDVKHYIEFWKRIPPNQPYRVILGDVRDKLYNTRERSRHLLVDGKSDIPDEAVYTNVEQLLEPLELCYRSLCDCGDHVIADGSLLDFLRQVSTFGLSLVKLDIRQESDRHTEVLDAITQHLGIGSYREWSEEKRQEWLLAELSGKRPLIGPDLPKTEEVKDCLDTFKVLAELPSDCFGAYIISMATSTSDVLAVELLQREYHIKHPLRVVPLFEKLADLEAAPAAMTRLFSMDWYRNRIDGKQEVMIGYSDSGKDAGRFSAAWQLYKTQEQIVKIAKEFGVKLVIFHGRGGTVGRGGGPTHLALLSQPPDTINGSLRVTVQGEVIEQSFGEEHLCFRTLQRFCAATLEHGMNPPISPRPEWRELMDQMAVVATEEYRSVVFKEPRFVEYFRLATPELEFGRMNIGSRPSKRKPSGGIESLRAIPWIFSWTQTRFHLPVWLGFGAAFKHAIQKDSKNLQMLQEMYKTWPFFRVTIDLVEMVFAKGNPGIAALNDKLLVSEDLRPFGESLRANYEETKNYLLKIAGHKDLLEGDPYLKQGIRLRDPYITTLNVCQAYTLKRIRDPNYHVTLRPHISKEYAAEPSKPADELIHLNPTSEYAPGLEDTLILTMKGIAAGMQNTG
Experimental: The IC50 values of small molecule compounds on F. pringlei and F. trinervia PEPCs were determined using PEPC coupled spectrophotometric assay. The amount of NADH oxidized by NADH-malate dehydrogenase was measured by the decrease in absorbance at 340 nm in a Beckman DU-800 spectrophotometer, thus the value is in proportion to the corresponding substrate conversion of the enzyme. […] The reactions were started by adding two folds of the Km value of PEP for each enzyme. The data were analyzed using GraFit (Erithacus Software, UK).

Bacillus subtilis 168 = experiment: Bacterial growth in microscale cultivation, B. subtilis; assay type: cell-based; conditions: for activity at 4 µM / activity at 40 µM / activity at 120 µM / activity at 400 µM / Lag Phase: relative to control; for Influence on bacterial growth: highest concentration tested (10× IC50) if not stated otherwise
Experimental: (§1) The following bacteria were cultivated in the presence of trans-chalcone derived inhibitors: Corynebacterium glutamicum ATCC13032[43], Escherichia coli K-12 MG1655[44], Pseudomonas putida KT2440[45], and Bacillus subtilis 168[46]. The growth of these bacteria was monitored in flower-well plates shaken at 1200 rpm as backscatter at 620 nm (gain 20) using a BioLector® microscale cultivation system (m2p labs, Baesweiler, Germany). For further experimental details please refer to the Supplementary Information.
(§2) medium or the appropriate minimal medium and shaken at 140 rpm overnight. For inoculation of
(§3) the main culture, cells equivalent to an optical density at 600 nm of 0.5 (C. glutamicum, E. coli,
(§4) and P. putida) or 0.25 (B. subtilis) in 800 µL medium were washed and resuspended in fresh
(§5) media. Inhibitor substances were dissolved in DMSO and added to the media to a final
(§6) Since the least polar trans-chalcone and 2’-hydroxychalcone precipitated in the growth media at
(§7) the highest concentrations, the maximal concentration of these compounds was reduced to 400
(§8) µM and 100 µM, respectively. The final backscatter at 620 nm, the growth rate (h-1), and the
(§9) duration of the lag phase of all cultures were determined in a BioLector microscale cultivation
(§10) system in comparison to negative controls supplemented with the solvent DMSO. A longer lag

[1] = tested on: Corynebacterium glutamicum ATCC13032; experiment: Bacterial growth in microscale cultivation, C. glutamicum; assay type: cell-based; conditions: relative to control; for activity at 4 µM / activity at 40 µM / activity at 120 µM / activity at 400 µM: Corynebacterium glutamicum
Experimental: as §1, §2, §3, §4, §5, §6, §7, §8, §9, §10

[2] = Bacillus subtilis, 168, complex medium, 4 µM, read-out: Final Backscatter
[3] = Bacillus subtilis, 168, complex medium, 4 µM, read-out: Growth rate
[4] = Bacillus subtilis, 168, complex medium, 40 µM, read-out: Final Backscatter
[5] = Bacillus subtilis, 168, complex medium, 40 µM, read-out: Growth rate
[6] = Bacillus subtilis, 168, complex medium, 400 µM, read-out: Final Backscatter
[7] = Bacillus subtilis, 168, complex medium, 400 µM, read-out: Growth rate
[8] = Bacillus subtilis, 168, minimal medium, 4 µM, read-out: Final Backscatter
[9] = Bacillus subtilis, 168, minimal medium, 4 µM, read-out: Growth rate
[10] = Bacillus subtilis, 168, minimal medium, 40 µM, read-out: Final Backscatter
[11] = Bacillus subtilis, 168, minimal medium, 40 µM, read-out: Growth rate
[12] = Bacillus subtilis, 168, minimal medium, 400 µM, read-out: Final Backscatter
[13] = Bacillus subtilis, 168, minimal medium, 400 µM, read-out: Growth rate
[14] = ATCC13032, complex medium, 4 µM, read-out: Final Backscatter
[15] = ATCC13032, complex medium, 4 µM, read-out: Growth rate
[16] = ATCC13032, complex medium, 40 µM, read-out: Final Backscatter
[17] = ATCC13032, complex medium, 40 µM, read-out: Growth rate
[18] = ATCC13032, complex medium, 400 µM, read-out: Final Backscatter
[19] = ATCC13032, complex medium, 400 µM, read-out: Growth rate
[20] = ATCC13032, minimal medium, 4 µM, read-out: Final Backscatter
[21] = ATCC13032, minimal medium, 4 µM, read-out: Growth rate
[22] = ATCC13032, minimal medium, 40 µM, read-out: Final Backscatter
[23] = ATCC13032, minimal medium, 40 µM, read-out: Growth rate
[24] = ATCC13032, minimal medium, 400 µM, read-out: Final Backscatter
[25] = ATCC13032, minimal medium, 400 µM, read-out: Growth rate

O=C(/C=C/c1ccc(O)cc1)c1ccccc1O [Compound 3, 2′,4-Dihydroxychalcone]
Selectivity C4/C3 (F. trinervia PEPC): 1.6 fold
IC50 (F. trinervia PEPC): 39.8 ± 4.2 µM
activity at 4 µM (Bacillus subtilis 168; [2]): 95.2%
activity at 4 µM (Bacillus subtilis 168; [3]): 99.5%
activity at 40 µM (Bacillus subtilis 168; [4]): 97.1%
activity at 40 µM (Bacillus subtilis 168; [5]): 108%
activity at 120 µM (Bacillus subtilis 168; Bacillus subtilis, 168, complex medium, 120 µM, read-out: Final Backscatter): 102%
activity at 120 µM (Bacillus subtilis 168; Bacillus subtilis, 168, complex medium, 120 µM, read-out: Growth rate): 114%
activity at 400 µM (Bacillus subtilis 168; [6]): 91.6%
activity at 400 µM (Bacillus subtilis 168; [7]): 92.8%
activity at 4 µM (Bacillus subtilis 168; [8]): 101%
activity at 4 µM (Bacillus subtilis 168; [9]): 130%
activity at 40 µM (Bacillus subtilis 168; [10]): 99.1%
activity at 40 µM (Bacillus subtilis 168; [11]): 119%
activity at 120 µM (Bacillus subtilis 168; Bacillus subtilis, 168, minimal medium, 120 µM, read-out: Final Backscatter): 100%
activity at 120 µM (Bacillus subtilis 168; Bacillus subtilis, 168, minimal medium, 120 µM, read-out: Growth rate): 115%
activity at 400 µM (Bacillus subtilis 168; [12]): 102%
activity at 400 µM (Bacillus subtilis 168; [13]): 113%
Lag Phase (Bacillus subtilis 168; complex medium, 4 µM): 105,7%
Lag Phase (Bacillus subtilis 168; complex medium, 40 µM): 105,7%
Lag Phase (Bacillus subtilis 168; complex medium, 120 µM): 125,5%
Lag Phase (Bacillus subtilis 168; complex medium, 400 µM): 151,3%
Lag Phase (Bacillus subtilis 168; minimal medium, 4 µM): 99,0%
Lag Phase (Bacillus subtilis 168; minimal medium, 40 µM): 101,0%
Lag Phase (Bacillus subtilis 168; minimal medium, 120 µM): 111,3%
Lag Phase (Bacillus subtilis 168; minimal medium, 400 µM): 151,4%
activity at 4 µM [1, 14]: 100%
activity at 4 µM [1, 15]: 101%
activity at 40 µM [1, 16]: 103%
activity at 40 µM [1, 17]: 99.1%
activity at 120 µM ([1]; ATCC13032, complex medium, 120 µM, read-out: Final Backscatter): 111%
activity at 120 µM ([1]; ATCC13032, complex medium, 120 µM, read-out: Growth rate): 107%
activity at 400 µM [1, 18]: 112%
activity at 400 µM [1, 19]: 93.9%
activity at 4 µM [1, 20]: 102%
activity at 4 µM [1, 21]: 99.6%
activity at 40 µM [1, 22]: 103%
activity at 40 µM [1, 23]: 99.5%
activity at 120 µM ([1]; ATCC13032, minimal medium, 120 µM, read-out: Final Backscatter): 102%
activity at 120 µM ([1]; ATCC13032, minimal medium, 120 µM, read-out: Growth rate): 96.7%
activity at 400 µM [1, 24]: 106%
activity at 400 µM [1, 25]: 81.2%
Lag Phase ([1]; complex medium, 4 µM): 93,2%
Lag Phase ([1]; complex medium, 40 µM): 93,8%
Lag Phase ([1]; complex medium, 120 µM): 100,5%
Lag Phase ([1]; complex medium, 400 µM): 118,1%
Lag Phase ([1]; minimal medium, 4 µM): 100,0%
Lag Phase ([1]; minimal medium, 40 µM): 97,3%
Lag Phase ([1]; minimal medium, 120 µM): 107,7%
Lag Phase ([1]; minimal medium, 400 µM): 139,3%

O=C(/C=C/c1ccccc1)c1ccc(O)cc1O [Compound 4, 2′,4′-Dihydroxychalcone]
Selectivity C4/C3 (F. trinervia PEPC): 2.1 fold
IC50 (F. trinervia PEPC): 25.2 ± 1.3 µM
activity at 4 µM (Bacillus subtilis 168; [2]): 92.2%
activity at 4 µM (Bacillus subtilis 168; [3]): 128%
activity at 40 µM (Bacillus subtilis 168; [4]): 94.3%
activity at 40 µM (Bacillus subtilis 168; [5]): 97.4%
activity at 400 µM (Bacillus subtilis 168; [6]): 81.5%
activity at 400 µM (Bacillus subtilis 168; [7]): 92.7%
activity at 4 µM (Bacillus subtilis 168; [8]): 96.6%
activity at 4 µM (Bacillus subtilis 168; [9]): 91.5%
activity at 40 µM (Bacillus subtilis 168; [10]): 95.7%
activity at 40 µM (Bacillus subtilis 168; [11]): 108%
activity at 400 µM (Bacillus subtilis 168; [12]): 77.3%
activity at 400 µM (Bacillus subtilis 168; [13]): 75.2%
Influence on bacterial growth (Bacillus subtilis 168; Complex medium): fbs↓ lag↑
Influence on bacterial growth (Bacillus subtilis 168; Minimal medium): fbs↓, lag↑
Lag Phase (Bacillus subtilis 168; complex medium, 4 µM): 107,7%
Lag Phase (Bacillus subtilis 168; complex medium, 40 µM): 107,7%
Lag Phase (Bacillus subtilis 168; complex medium, 400 µM): 166,5%
Lag Phase (Bacillus subtilis 168; minimal medium, 4 µM): 97,7%
Lag Phase (Bacillus subtilis 168; minimal medium, 40 µM): 100,0%
Lag Phase (Bacillus subtilis 168; minimal medium, 400 µM): 129,1%
activity at 4 µM [1, 14]: 101%
activity at 4 µM [1, 15]: 113%
activity at 40 µM [1, 16]: 105%
activity at 40 µM [1, 17]: 115%
activity at 400 µM [1, 18]: 107%
activity at 400 µM [1, 19]: 91.6%
activity at 4 µM [1, 20]: 102%
activity at 4 µM [1, 21]: 98.9%
activity at 40 µM [1, 22]: 100%
activity at 40 µM [1, 23]: 95.5%
activity at 400 µM [1, 24]: 110%
activity at 400 µM [1, 25]: 65.2%
Lag Phase ([1]; complex medium, 4 µM): 97,4%
Lag Phase ([1]; complex medium, 40 µM): 96,2%
Lag Phase ([1]; complex medium, 400 µM): 116,6%
Lag Phase ([1]; minimal medium, 4 µM): 98,7%
Lag Phase ([1]; minimal medium, 40 µM): 100,0%
Lag Phase ([1]; minimal medium, 400 µM): 169,9%
